This data set is classed as physicochemical. As to the method:
Using the appropriately precise DSC method set forth in Example 12 herein, wherein the analysis is conducted at a maximum rate of 1° C. per minute, multiple levels of polymorph Forms A, B, and C each are typically present in fluoxetine hydrochloride API (FIGS. 2 and 4). When such API is prepared via any one of the methods of the present invention, recrystallization, slurry, and compression, and analyzed using said DSC method, a single endotherm occurring at a temperature range from about 155° C. to about 160° C., and more preferably from about 157° C. to about 159° C., confirms the presence of Form A of fluoxetine hydrochloride (FIGS. 6 and 8 for the compression and slurry methods, respectively). […] Accordingly, the slurry method for preparing pure and essentially pure Form A is preferred, while the compression method is especially preferred.
Differential Scanning Calorimetry for fluoxetine hydrochloride. The method described in Example 11 was used, except the heating rate was changed from 10° C. per minute to a heating rate of 1° C. per minute from 145° C. to 175° C.

Regarding `CNCCC(Oc1ccc(C(F)(F)F)cc1)c1ccccc1.Cl` (racemic) [Form A, (±)-N-methyl-3-phenyl-2-[α,α,α-trifluoro-p-tolyl) oxy] propylamine hydrochloride], the “polymorphic forms found by DSC after storage under accelerated stability conditions” value was “two additional polymorphs of fluoxetine hydrochloride, Forms D and E, were prepared”. For the same compound, where the note is “pure Form A prepared via recrystallization method, stored at 40° C. and 75% relative humidity, within three days”, the “polymorphic forms found by DSC thermogram (FIG. 11) after storage” value is “Forms A, D, and E, which formed within three days”.

(Values after patent publication US20030105360A1, “Form a of fluoxetine hydrochloride” (priority 2001, published 2003).)
